Assay results from patent US6593342B1, “Pharmaceutical compositions comprising 2-quinolones” (Laboratoire L. Lafon, priority 1998, dated 2003).

System: hormone-sensitive mouse mammary adenocarcinoma MXT (HS-MXT)
Assay: In vivo antitumor activity, mouse mammary adenocarcinoma HS-MXT
Protocol: 4.—In Vivo Antitumor Activity in Combination With a Cytotoxic Agent
The tests were carried out on models of:
hormone-sensitive mouse mammary adenocarcinoma MXT (HS-MXT),
in the presence or absence of cytotoxic agents such as cyclophosphamide, etoposide, doxorubicin or vincristine.
When the MTD value of a product was determined, its in vivo antitumor activity was characterized at doses of MTD/2, MTD/4 and MTD/8 on the model of mouse mammary adenocarcinoma HS-MXT and on the model of lymphoma P 388.
In all the examples presented below, irrespective of the model (mammary adenocarcinoma HS-MXT or lymphoma P 388), the control condition is represented by a batch of 9 mice to which is administered for 5 consecutive weeks and at a rate of 5 administrations (Monday, Tuesday, Wednesday, Thursday and Friday) per week a volume of 0.2 ml of physiological saline containing the solvent used to dissolve the various compounds of formulae (I) and (Ia) used.
The following parameters were determined in these tests:
i)—The survival rate of the mice
This survival rate was calculated in the form of a ratio T/C:
This ratio represents the average survival time of the median mouse from the batch of treated mice relative to the average survival time of the median mouse from the batch of control mice. Thus, a molecule induces a significant (P<0.05) increase in the survival of the animals when the index T/C exceeds 130%. Conversely, it has a toxic effect when this value of T/C is less than 70%.
ii)—The tumor growth [lacuna] by measuring the area of the grafted HS-MXT or P 388 tumors twice a week (Monday and Friday). This area is calculated by multiplying the values of the largest two perpendicular axes of the tumor. The value of these axes is measured using a sliding caliper.
The model of hormone-sensitive MXT (HS-MXT) mouse mammary adenocarcinoma grafted onto 4- to 6-week-old B6D2F1/JIco mice is derived from the milk ducts of the mammary gland (Watson C. et al. Cancer Res. 1977; 37: 3344-48).
Compound 1 is administered alone. The first injection of the product is carried out on the seventh day post-grafting (D7) for four consecutive weeks at a rate of 5 injections per week (Monday, Tuesday, Wednesday, Thursday and Friday) and at a dose of 20 mg/kg.
Cyclophosphamide (CPA) is administered alone. The first injection of the product is carried out on the fourteenth day post-grafting (D14) for three consecutive weeks at a rate of 3 injections per week (Monday, Wednesday and Friday) and at a dose of 10 mg/kg.
Compound 1 is co-administered with cyclophosphamide. In this case, the first injection of compound 1 is carried out on the seventh day post-grafting (D7) for four consecutive weeks at a rate of 5 injections per week (Monday, Tuesday, Wednesday, Thursday and Friday) at a dose of 20 mg/kg, and the first injection of cyclophosphamide is carried out on the fourteenth day post-grafting (D14) for three consecutive weeks at a rate of 3 injections per week (Monday, Wednesday and Friday) at a dose of 10 mg/kg.
Etoposide (ETO) is administered alone. The first injection of the product is carried out on the fourteenth day post-grafting (D14) for three consecutive weeks at a rate of 3 injections per week (Monday, Wednesday and Friday) and at a dose of 10 mg/kg.
Doxorubicin (DOX) is administered alone. The first injection of the product is carried out on the fourteenth day post-grafting (D14) for three consecutive weeks at a rate of 3 injections per week (Monday, Wednesday and Friday) and at a dose of 5 mg/kg.
Compound 1 is co-administered with etoposide.

Row | Structure (SMILES) | T/C (survival) (Table IV, HS-MXT in B6D2F1/JIco mice, compound 1 20 mg/kg 5 injections/week from D7, 4 weeks, CPA 10 mg/kg 3 injections/week from D14, 3 weeks) | T/C (survival) (Table V, HS-MXT in B6D2F1/JIco mice, compound 1 20 mg/kg 5/week from D7, 4 weeks, ETO 10 mg/kg or DOX 5 mg/kg 3/week from D14, 3 weeks) | Tumor area, reduction (−) or increase (+) compared with control (Table VI, HS-MXT tumors, 31st day after graft, 19 administrations of compound 1 (20 mg/kg), 8 of cyclophosphamide (10 mg/kg)) | T/C (survival) (Table VII, HS-MXT, compound 21 40 mg/kg 5/week from D7, 5 weeks, ETO 10 mg/kg 3/week from D7, 3 weeks)
1 | COc1ccc(-c2cc3c(OC)cc(OC)cc3[nH]c2=O)cc1 [CRL8246, 5,7-Dimethoxy-3-(4-methoxyphenyl)-1,2-dihydro-2-quinolinone] | 100% | 95% | −19.5% | 
2 | COc1ccc(-c2cc3c(OC)cc(OC)cc3n(CCc3nnn[nH]3)c2=O)cc1 [CRL8256, 1-[2-(1H-1,2,3,4-Tetrazol-5-yl)ethyl]-5,7-dimethoxy-3-(4-methoxyphenyl)-1,2-dihydro-2-quinolinone] |  |  |  | 110%
